Values after ≈ are worked out from the molar mass of the structure shown. Active and inactive are the calls of the source. No cut-off for these calls is given here.
What was measured:
[1] = system: Streptococcus pyogenes; test: Antibacterial activity against Streptococcus pyogenes by standard broth dilution technique; type: functional, organism-based
[2] = system: Candida albicans; test: Antifungal activity against Candida albicans by standard broth dilution technique; type: functional, organism-based
[3] = system: Histoplasma capsulatum; test: Antifungal activity against Histoplasma capsulatum assessed as growth inhibition after 3 days by standard broth dilution technique; type: functional; details: 72 h
[4] = Antifungal activity against Microsporum fulvum assessed as growth inhibition after 3 days by standard broth dilution technique; type: functional; details: Arthroderma fulvum

CC[C@H]1O[C@@H](/C(C)=C/[C@H](C)/C=C/[C@H]2[C@@H](C)[C@@H]2/C=C/[C@@H]2O[C@H](CC(O)(c3ccccc3)c3ccccc3)C[C@H](O)[C@H]2O)CC=C1C
Activity [1]: inactive
Activity [2]: inactive
MIC [3]: 50 µg/mL (≈ 81.6 µM)
MIC [4]: > 50 µg/mL

CC[C@H]1O[C@@H](/C(C)=C/[C@H](C)/C=C/[C@H]2[C@@H](C)[C@@H]2/C=C/[C@@H]2O[C@H](CCO)C[C@@H](O)[C@H]2O)CC=C1C
Activity [1]: inactive
Activity [2]: inactive
MIC [3]: 0.39 µg/mL (≈ 0.847 µM)
MIC [4]: 0.39 µg/mL (≈ 0.847 µM)

CC[C@H]1O[C@@H](/C(C)=C/[C@H](C)/C=C/[C@H]2[C@@H](C)[C@@H]2/C=C/[C@@H]2O[C@H](CCO)CC(=O)[C@H]2O)CC=C1C
Activity [1]: inactive
Activity [2]: inactive
MIC [3]: 6.25 µg/mL (≈ 13.6 µM)
MIC [4]: 0.78 µg/mL (≈ 1.7 µM)

CC[C@H]1O[C@@H](/C(C)=C/[C@H](C)/C=C/[C@H]2[C@@H](C)[C@@H]2/C=C/[C@@H]2O[C@H](CCO)C[C@@](O)(CC)[C@H]2O)CC=C1C
Activity [1]: inactive
Activity [2]: inactive
MIC [3]: 1.56 µg/mL (≈ 3.19 µM)
MIC [4]: 1.56 µg/mL (≈ 3.19 µM)

CC[C@H]1O[C@@H](/C(C)=C/[C@H](C)/C=C/[C@H]2[C@@H](C)[C@@H]2/C=C/[C@@H]2O[C@H](CC(O)(CC)CC)C[C@H](O)[C@H]2O)CC=C1C
Activity [1]: inactive
Activity [2]: inactive
MIC [3]: 1.56 µg/mL (≈ 3.02 µM)
MIC [4]: 3.12 µg/mL (≈ 6.04 µM)

CC[C@H]1O[C@@H](/C(C)=C/[C@H](C)/C=C/[C@H]2[C@@H](C)[C@@H]2/C=C/[C@@H]2O[C@H](CC(=O)C(C)(C)C)C[C@H](O)[C@H]2O)CC=C1C
Activity [1]: inactive
Activity [2]: inactive
MIC [3]: 12.5 µg/mL (≈ 24.3 µM)
MIC [4]: > 50 µg/mL

CC[C@H]1O[C@@H](/C(C)=C/[C@H](C)/C=C/[C@H]2[C@@H](C)[C@@H]2/C=C/[C@@H]2O[C@H](CC(=O)OC)C/C(=N/O)[C@H]2O)CC=C1C
Activity [1]: inactive
Activity [2]: inactive
MIC [3]: 0.78 µg/mL (≈ 1.55 µM)

CC[C@H]1O[C@@H](/C(C)=C/[C@H](C)/C=C/[C@H]2[C@@H](C)[C@@H]2/C=C/[C@@H]2O[C@H](CC=O)C[C@H](O)[C@H]2O)CC=C1C
Activity [1]: inactive
Activity [2]: inactive
MIC [3]: 0.78 µg/mL (≈ 1.7 µM)
MIC [4]: 0.098 µg/mL (≈ 0.214 µM)

CC[C@H]1O[C@@H](/C(C)=C/[C@H](C)/C=C/[C@H]2[C@@H](C)[C@@H]2/C=C/[C@@H]2O[C@H](CC(O)C(C)(C)C)C[C@H](O)[C@H]2O)CC=C1C (some centres undefined)
Activity [1]: inactive
Activity [2]: inactive
MIC [3]: 6.25 µg/mL (≈ 12.1 µM)
MIC [4]: > 50 µg/mL

CC[C@H]1O[C@@H](/C(C)=C/[C@H](C)/C=C/[C@H]2[C@@H](C)[C@@H]2/C=C/[C@@H]2O[C@H](CC(C)=O)C[C@H](O)[C@H]2O)CC=C1C
Activity [1]: inactive
Activity [2]: inactive
MIC [3]: 0.39 µg/mL (≈ 0.825 µM)
MIC [4]: 0.195 µg/mL (≈ 0.413 µM)

CCC(=O)C[C@@H]1C[C@H](O)[C@@H](O)[C@H](/C=C/[C@H]2[C@H](C)[C@@H]2/C=C/[C@@H](C)/C=C(\C)[C@H]2CC=C(C)[C@@H](CC)O2)O1
Activity [1]: inactive
Activity [2]: inactive
MIC [3]: 0.78 µg/mL (≈ 1.6 µM)
MIC [4]: 0.78 µg/mL (≈ 1.6 µM)

CC[C@H]1O[C@@H](/C(C)=C/[C@H](C)/C=C/[C@H]2[C@@H](C)[C@@H]2/C=C/[C@@H]2O[C@H](CCOC(C)=O)C[C@H](OC(C)=O)[C@H]2OC(C)=O)CC=C1C
Activity [1]: inactive
Activity [2]: inactive
MIC [3]: 50 µg/mL (≈ 85.2 µM)
MIC [4]: > 50 µg/mL

CC[C@H]1O[C@@H](/C(C)=C/[C@H](C)/C=C/[C@H]2[C@@H](C)[C@@H]2/C=C/[C@@H]2O[C@H](CCOC(=O)Nc3ccccc3)C[C@H](OC(=O)Nc3ccccc3)[C@H]2OC(=O)Nc2ccccc2)CC=C1C
Activity [1]: inactive
Activity [2]: inactive
MIC [4]: > 50 µg/mL

CC[C@H]1O[C@@H](/C(C)=C/[C@H](C)/C=C/[C@H]2[C@@H](C)[C@@H]2/C=C/[C@@H]2O[C@H](CC(=O)OC)CC(=O)[C@H]2O)CC=C1C
Activity [1]: inactive
Activity [2]: inactive
MIC [3]: 0.39 µg/mL (≈ 0.801 µM)
MIC [4]: 0.195 µg/mL (≈ 0.401 µM)

CCC(O)C[C@@H]1C[C@H](O)[C@@H](O)[C@H](/C=C/[C@H]2[C@H](C)[C@@H]2/C=C/[C@@H](C)/C=C(\C)[C@H]2CC=C(C)[C@@H](CC)O2)O1 (some centres undefined)
Activity [1]: inactive
Activity [2]: inactive
MIC [3]: 0.78 µg/mL (≈ 1.6 µM)

CC[C@H]1O[C@@H](/C(C)=C/[C@H](C)/C=C/[C@H]2[C@@H](C)[C@@H]2/C=C/[C@@H]2O[C@H](CC(C)(C)O)C[C@H](O)[C@H]2O)CC=C1C
Activity [1]: inactive
Activity [2]: inactive
MIC [3]: 0.78 µg/mL (≈ 1.6 µM)
MIC [4]: 0.195 µg/mL (≈ 0.399 µM)

CC[C@H]1O[C@@H](/C(C)=C/[C@H](C)/C=C/[C@H]2[C@@H](C)[C@@H]2/C=C/[C@@H]2O[C@H](CC(=O)O)C/C(=N/O)[C@H]2O)CC=C1C
Activity [1]: inactive
Activity [2]: inactive
MIC [3]: 3.12 µg/mL (≈ 6.4 µM)
MIC [4]: 1.56 µg/mL (≈ 3.2 µM)

CC[C@H]1O[C@@H](/C(C)=C/[C@H](C)/C=C/[C@H]2[C@@H](C)[C@@H]2/C=C/[C@@H]2O[C@H](CC(O)(C(C)C)C(C)C)C[C@H](O)[C@H]2O)CC=C1C
Activity [1]: inactive
Activity [2]: inactive
MIC [3]: 50 µg/mL (≈ 91.8 µM)
MIC [4]: > 50 µg/mL

CC[C@H]1O[C@@H](/C(C)=C/[C@H](C)/C=C/[C@H]2[C@@H](C)[C@@H]2/C=C/[C@@H]2O[C@H](CCOC(=O)Nc3ccc(Cl)cc3)C[C@H](OC(=O)Nc3ccc(Cl)cc3)[C@H]2OC(=O)Nc2ccc(Cl)cc2)CC=C1C
Activity [1]: inactive
Activity [2]: inactive
MIC [4]: > 50 µg/mL

CC[C@H]1O[C@@H](/C(C)=C/[C@H](C)/C=C/[C@H]2[C@@H](C)[C@@H]2/C=C/[C@@H]2O[C@H](CCO)C[C@@](O)(c3ccccc3)[C@H]2O)CC=C1C
Activity [1]: inactive
Activity [2]: inactive
MIC [3]: 3.12 µg/mL (≈ 5.81 µM)
MIC [4]: 6.25 µg/mL (≈ 11.6 µM)

CC[C@H]1O[C@@H](/C(C)=C/[C@H](C)/C=C/[C@H]2[C@@H](C)[C@@H]2/C=C/[C@@H]2O[C@H](CCOC(=O)Nc3ccc(Br)cc3)C[C@H](OC(=O)Nc3ccc(Br)cc3)[C@H]2OC(=O)Nc2ccc(Br)cc2)CC=C1C
Activity [1]: inactive
Activity [2]: inactive
MIC [4]: > 50 µg/mL

CC[C@H]1O[C@@H](/C(C)=C/[C@H](C)/C=C/[C@H]2[C@@H](C)[C@@H]2/C=C/[C@@H]2O[C@H](CC(=O)OC)C[C@H](O)[C@H]2O)CC=C1C
Activity [1]: inactive
Activity [2]: inactive
MIC [3]: 0.39 µg/mL (≈ 0.798 µM)
MIC [4]: 0.39 µg/mL (≈ 0.798 µM)

CC[C@H]1O[C@@H](/C(C)=C/[C@H](C)/C=C/[C@H]2[C@@H](C)[C@@H]2/C=C/[C@@H]2O[C@H](CC(C)O)C[C@H](O)[C@H]2O)CC=C1C (some centres undefined)
Activity [1]: inactive
Activity [2]: inactive
MIC [3]: 0.098 µg/mL (≈ 0.206 µM)
MIC [4]: 0.195 µg/mL (≈ 0.411 µM)

CC[C@H]1O[C@@H](/C(C)=C/[C@H](C)/C=C/[C@H]2[C@@H](C)[C@@H]2/C=C/[C@@H]2O[C@H](CC(=O)O)C[C@@H](O)[C@H]2O)CC=C1C
Activity [1]: inactive
Activity [2]: inactive
MIC [3]: 0.78 µg/mL (≈ 1.64 µM)
MIC [4]: 0.195 µg/mL (≈ 0.411 µM)

CC[C@H]1O[C@@H](/C(C)=C/[C@H](C)/C=C/[C@H]2[C@@H](C)[C@@H]2/C=C/[C@@H]2O[C@H](CCO)C/C(=N\O)[C@H]2O)CC=C1C
Activity [1]: inactive
Activity [2]: inactive
MIC [3]: 0.098 µg/mL (≈ 0.207 µM)
MIC [4]: 0.195 µg/mL (≈ 0.412 µM)

CC[C@H]1O[C@@H](/C(C)=C/[C@H](C)/C=C/[C@H]2[C@@H](C)[C@@H]2/C=C/[C@@H]2O[C@H](CC(=O)OC)C[C@@H](O)[C@H]2O)CC=C1C
Activity [1]: inactive
Activity [2]: inactive
MIC [3]: 0.39 µg/mL (≈ 0.798 µM)
MIC [4]: 0.39 µg/mL (≈ 0.798 µM)

CC[C@H]1O[C@@H](/C(C)=C/[C@H](C)/C=C/[C@H]2[C@@H](C)[C@@H]2/C=C/[C@@H]2O[C@H](CC(=O)O)C[C@H](O)[C@H]2O)CC=C1C [AMBRUTICIN]
Activity [1]: inactive
Activity [2]: inactive
MIC [3]: 0.39 µg/mL (≈ 0.822 µM)
MIC [4]: 0.098 µg/mL (≈ 0.206 µM)

CC[C@H]1O[C@@H](/C(C)=C/[C@H](C)/C=C/[C@H]2[C@@H](C)[C@@H]2/C=C/[C@@H]2O[C@H](CCO)C[C@](C)(O)[C@H]2O)CC=C1C
Activity [1]: inactive
Activity [2]: inactive
MIC [3]: 0.78 µg/mL (≈ 1.64 µM)
MIC [4]: 0.78 µg/mL (≈ 1.64 µM)

CC[C@H]1O[C@@H](/C(C)=C/[C@H](C)/C=C/[C@H]2[C@@H](C)[C@@H]2/C=C/[C@@H]2O[C@H](CCO)C[C@H](O)[C@H]2O)CC=C1C
Activity [1]: inactive
Activity [2]: inactive
MIC [3]: 0.098 µg/mL (≈ 0.213 µM)
MIC [4]: 0.098 µg/mL (≈ 0.213 µM)

CC[C@H]1O[C@@H](/C(C)=C/[C@H](C)/C=C/[C@H]2[C@@H](C)[C@@H]2/C=C/[C@@H]2O[C@H](CC(=O)c3ccccc3)C[C@H](O)[C@H]2O)CC=C1C
Activity [1]: inactive
Activity [2]: inactive
MIC [3]: 6.25 µg/mL (≈ 11.7 µM)
MIC [4]: 25 µg/mL (≈ 46.8 µM)

CC[C@H]1O[C@@H](/C(C)=C/[C@H](C)/C=C/[C@H]2[C@@H](C)[C@@H]2/C=C/[C@@H]2O[C@H](CC(O)c3ccccc3)C[C@H](O)[C@H]2O)CC=C1C (some centres undefined)
Activity [1]: inactive
Activity [2]: inactive
MIC [3]: 1.56 µg/mL (≈ 2.91 µM)
MIC [4]: 1.56 µg/mL (≈ 2.91 µM)

From ChEMBL document CHEMBL3244163, “Antifungal agents. 5. Chemical modification of antibiotics from Polyangium cellulosum var. fulvum. Alcohol, ketone, aldehyde, and oxime analogues of ambruticin” (1979)
